SMILES strings stand for the structures.

The target of this experiment is T1, SYK kinase (Homo sapiens, UniProt P43405).
T1 construct: purchased Invitrogen, Carlsbad
Put plainly: SYK assay (OMNIA Kinase Assay, Invitrogen). The settings on record: SYK Activities; 1 mM ATP, 10 μM Omnia Peptide Substrate Tyr 7, 30° C. In kind it is biochemical. In outline:
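SYK was added last to start phosphorylation of a chelation-enhanced SOX peptide substrate (10 μM) in the presence of 1 mM ATP and 0.2 mM DTT at 30° C. Kinetic readings at λex 360/λem 485 nm over 30 min gave velocities, fitted sigmoidally against compound concentration to give IC50.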
The term IC50 denotes the concentration needed to halve the response being measured. Low readings indicate inhibition by little substance, high ones a need for much substance. Take `CC(C)Cn1cc(Nc2nc(C3CC3)nc3cn[nH]c23)cn1` [Example 233, 5-cyclopropyl-N-(1-isobutyl-1H-pyrazol-4-yl)-1H-pyrazolo[4,3-d]pyrimidin-7-amine]: the IC50 is 10 to 100 nM. `CC(C)Cn1cc(Nc2nc(C3CCC3)nc3cn[nH]c23)cn1` [Example 234, 5-cyclobutyl-N-(1-isobutyl-1H-pyrazol-4-yl)-1H-pyrazolo[4,3-d]pyrimidin-7-amine] showed an IC50 of 100 to 1000 nM. To `CC(=O)N1CCN(c2ccc(Nc3nc(C4CC4)nc4cn[nH]c34)cn2)CC1` [Example 237, 1-(4-(5-((5-cyclopropyl-1H-pyrazolo[4,3-d]pyrimidin-7-yl)amino)pyridin-2-yl)piperazin-1-yl)ethan-1-one] belongs 10 to 100 nM; to `CC(C)Cn1cc(Nc2nc(-c3ccco3)nc3cn[nH]c23)cn1` [Example 238, 5-(furan-2-yl)-N-(1-isobutyl-1H-pyrazol-4-yl)-1H-pyrazolo[4,3-d]pyrimidin-7-amine], 10 to 100 nM.

Compound `OCCn1cc(Nc2nc(-c3ccco3)nc3cn[nH]c23)cn1` [Example 239, 2-(4-((5-(furan-2-yl)-1H-pyrazolo[4,3-d]pyrimidin-7-yl)amino)-1H-pyrazol-1-yl)ethan-1-ol] showed an IC50 below 10 nM. To `CC(C)Cn1cc(Nc2nc(-c3ccoc3)nc3cn[nH]c23)cn1` [Example 240, 5-(furan-3-yl)-N-(1-isobutyl-1H-pyrazol-4-yl)-1H-pyrazolo[4,3-d]pyrimidin-7-amine] belongs 10 to 100 nM; to `N#CCn1cc(Nc2nc(-c3ccoc3)nc3cn[nH]c23)cn1` [Example 241, 2-(4-((5-(furan-3-yl)-1H-pyrazolo[4,3-d]pyrimidin-7-yl)amino)-1H-pyrazol-1-yl)acetonitrile], below 10 nM. The value for `OCCn1cc(Nc2nc(-c3ccoc3)nc3cn[nH]c23)cn1` [Example 242, 2-(4-((5-(furan-3-yl)-1H-pyrazolo[4,3-d]pyrimidin-7-yl)amino)-1H-pyrazol-1-yl)ethan-1-ol] was below 10 nM. `CC(C)(C)n1cc(Nc2nc(-c3cocn3)nc3cn[nH]c23)cn1` [Example 243, N-(1-(tert-butyl)-1H-pyrazol-4-yl)-5-(oxazol-4-yl)-1H-pyrazolo[4,3-d]pyrimidin-7-amine] registered a half-maximal inhibitory concentration (IC50) of 10 to 100 nM. To `CC(C)n1cc(Nc2nc(-c3cocn3)nc3cn[nH]c23)cn1` [Example 244, N-(1-isopropyl-1H-pyrazol-4-yl)-5-(oxazol-4-yl)-1H-pyrazolo[4,3-d]pyrimidin-7-amine] belongs below 10 nM; to `COCCCn1cc(Nc2nc(-c3cocn3)nc3cn[nH]c23)cn1` [Example 245, N-(1-(3-methoxypropyl)-1H-pyrazol-4-yl)-5-(oxazol-4-yl)-1H-pyrazolo[4,3-d]pyrimidin-7-amine], below 10 nM. As to `CC(C)Cn1cc(Nc2nc(-c3cocn3)nc3cn[nH]c23)cn1` [Example 246, N-(1-isobutyl-1H-pyrazol-4-yl)-5-(oxazol-4-yl)-1H-pyrazolo[4,3-d]pyrimidin-7-amine], the half-maximal inhibitory concentration (IC50) lay within 10 to 100 nM. For the compound `OCCn1cc(Nc2nc(-c3cocn3)nc3cn[nH]c23)cn1` [Example 247, 2-(4-((5-(oxazol-4-yl)-1H-pyrazolo[4,3-d]pyrimidin-7-yl)amino)-1H-pyrazol-1-yl)ethan-1-ol], the IC50 was 10 to 100 nM. To `CC(C)(C)n1cc(Nc2nc(-c3ncco3)nc3cn[nH]c23)cn1` [Example 249, N-(1-(tert-butyl)-1H-pyrazol-4-yl)-5-(oxazol-2-yl)-1H-pyrazolo[4,3-d]pyrimidin-7-amine] belongs 100 to 1000 nM; to `CC(C)n1cc(Nc2nc(-c3ncco3)nc3cn[nH]c23)cn1` [Example 250, N-(1-isopropyl-1H-pyrazol-4-yl)-5-(oxazol-2-yl)-1H-pyrazolo[4,3-d]pyrimidin-7-amine], 100 to 1000 nM; to `COCCCn1cc(Nc2nc(-c3ncco3)nc3cn[nH]c23)cn1` [Example 251, N-(1-(3-methoxypropyl)-1H-pyrazol-4-yl)-5-(oxazol-2-yl)-1H-pyrazolo[4,3-d]pyrimidin-7-amine], 100 to 1000 nM.

`CC(C)Cn1cc(Nc2nc(-c3ncco3)nc3cn[nH]c23)cn1` [Example 252, N-(1-isobutyl-1H-pyrazol-4-yl)-5-(oxazol-2-yl)-1H-pyrazolo[4,3-d]pyrimidin-7-amine] returned a 50% inhibitory concentration (IC50) of 100 to 1000 nM. To `OCCn1cc(Nc2nc(-c3ncco3)nc3cn[nH]c23)cn1` [Example 253, 2-(4-((5-(oxazol-2-yl)-1H-pyrazolo[4,3-d]pyrimidin-7-yl)amino)-1H-pyrazol-1-yl)ethan-1-ol] belongs 100 to 1000 nM; to `c1coc(-c2nc(Nc3cnn(C4CCOCC4)c3)c3[nH]ncc3n2)n1` [Example 254, 5-(oxazol-2-yl)-N-(1-(tetrahydro-2H-pyran-4-yl)-1H-pyrazol-4-yl)-1H-pyrazolo[4,3-d]pyrimidin-7-amine], 100 to 1000 nM. Compound `CN1CCC(n2cc(Nc3nc(-c4ncco4)nc4cn[nH]c34)cn2)CC1` [Example 255, N-(1-(1-methylpiperidin-4-yl)-1H-pyrazol-4-yl)-5-(oxazol-2-yl)-1H-pyrazolo[4,3-d]pyrimidin-7-amine] displayed a 50% inhibitory concentration (IC50) of 100 to 1000 nM.

For `COCCn1cc(Nc2nc(-c3ncco3)nc3cn[nH]c23)cn1` [Example 256, N-(1-(2-methoxyethyl)-1H-pyrazol-4-yl)-5-(oxazol-2-yl)-1H-pyrazolo[4,3-d]pyrimidin-7-amine], the IC50 was 100 to 1000 nM. The compound `CC(=O)N1CCC(n2cc(Nc3nc(-c4ncco4)nc4cn[nH]c34)cn2)CC1` [Example 257, 1-(4-(4-((5-(oxazol-2-yl)-1H-pyrazolo[4,3-d]pyrimidin-7-yl)amino)-1H-pyrazol-1-yl)piperidin-1-yl)ethan-1-one] gave an IC50 of 100 to 1000 nM.

In turn, `CC(C)(C)n1cc(Nc2nc(-c3cccc(NS(C)(=O)=O)c3)nc3cn[nH]c23)cn1` [Example 258, N-(3-(7-((1-(tert-butyl)-1H-pyrazol-4-yl)amino)-1H-pyrazolo[4,3-d]pyrimidin-5-yl)phenyl)methanesulfonamide] displayed a half-inhibitory concentration (IC50) of 100 to 1000 nM. The value for `CC(C)n1cc(Nc2nc(-c3cccc(NS(C)(=O)=O)c3)nc3cn[nH]c23)cn1` [Example 259, N-(3-(7-((1-isopropyl-1H-pyrazol-4-yl)amino)-1H-pyrazolo[4,3-d]pyrimidin-5-yl)phenyl)methanesulfonamide] was 10 to 100 nM; that for `COCCCn1cc(Nc2nc(-c3cccc(NS(C)(=O)=O)c3)nc3cn[nH]c23)cn1` [Example 260, N-(3-(7-((1-(3-methoxypropyl)-1H-pyrazol-4-yl)amino)-1H-pyrazolo[4,3-d]pyrimidin-5-yl)phenyl)methanesulfonamide] was 10 to 100 nM; that for `CC(C)Cn1cc(Nc2nc(-c3cccc(NS(C)(=O)=O)c3)nc3cn[nH]c23)cn1` [Example 261, N-(3-(7-((1-isobutyl-1H-pyrazol-4-yl)amino)-1H-pyrazolo[4,3-d]pyrimidin-5-yl)phenyl)methanesulfonamide] was 100 to 1000 nM.

The compound `CS(=O)(=O)Nc1cccc(-c2nc(Nc3cnn(CCO)c3)c3[nH]ncc3n2)c1` [Example 262, N-(3-(7-((1-(2-hydroxyethyl)-1H-pyrazol-4-yl)amino)-1H-pyrazolo[4,3-d]pyrimidin-5-yl)phenyl)methanesulfonamide] came in with a 50% inhibitory concentration (IC50) of 100 to 1000 nM. The value for `CS(=O)(=O)Nc1cccc(-c2nc(Nc3cnn(C4CCOCC4)c3)c3[nH]ncc3n2)c1` [Example 263, N-(3-(7-((1-(tetrahydro-2H-pyran-4-yl)-1H-pyrazol-4-yl)amino)-1H-pyrazolo[4,3-d]pyrimidin-5-yl)phenyl)methanesulfonamide] was 100 to 1000 nM; that for `CN1CCC(n2cc(Nc3nc(-c4cccc(NS(C)(=O)=O)c4)nc4cn[nH]c34)cn2)CC1` [Example 264, N-(3-(7-((1-(1-methylpiperidin-4-yl)-1H-pyrazol-4-yl)amino)-1H-pyrazolo[4,3-d]pyrimidin-5-yl)phenyl)methanesulfonamide] was 10 to 100 nM; that for `COCCn1cc(Nc2nc(-c3cccc(NS(C)(=O)=O)c3)nc3cn[nH]c23)cn1` [Example 265, N-(3-(7-((1-(2-methoxyethyl)-1H-pyrazol-4-yl)amino)-1H-pyrazolo[4,3-d]pyrimidin-5-yl)phenyl)methanesulfonamide] was 100 to 1000 nM.

As to `CC(=O)N1CCC(n2cc(Nc3nc(-c4cccc(NS(C)(=O)=O)c4)nc4cn[nH]c34)cn2)CC1` [Example 266, N-(3-(7-((1-(1-acetylpiperidin-4-yl)-1H-pyrazol-4-yl)amino)-1H-pyrazolo[4,3-d]pyrimidin-5-yl)phenyl)methanesulfonamide], the half-maximal inhibitory concentration (IC50) was 100 to 1000 nM. To `c1nn(C2CC2)cc1Nc1nc(C2CCC2)nc2cn[nH]c12` [Example 267, 5-cyclobutyl-N-(1-cyclopropyl-1H-pyrazol-4-yl)-1H-pyrazolo[4,3-d]pyrimidin-7-amine] belongs 10 to 100 nM. As to `CC(C)Cn1cc(Nc2nc(C(C)(C)C)nc3cn[nH]c23)cn1` [Example 268, 5-(tert-butyl)-N-(1-isobutyl-1H-pyrazol-4-yl)-1H-pyrazolo[4,3-d]pyrimidin-7-amine], the IC50 lay in the range of 100 to 1000 nM. `CC(C)n1cc(Nc2nc(C(C)(C)C)nc3cn[nH]c23)cn1` [Example 269, 5-(tert-butyl)-N-(1-isopropyl-1H-pyrazol-4-yl)-1H-pyrazolo[4,3-d]pyrimidin-7-amine]: the IC50 lay in the range of 10 to 100 nM. In turn, `COCCCn1cc(Nc2nc(C(C)(C)C)nc3cn[nH]c23)cn1` [Example 270, 5-(tert-butyl)-N-(1-(3-methoxypropyl)-1H-pyrazol-4-yl)-1H-pyrazolo[4,3-d]pyrimidin-7-amine] displayed a 50% inhibitory concentration (IC50) of 100 to 1000 nM. `CC(C)(C)c1nc(Nc2cnn(C3CC3)c2)c2[nH]ncc2n1` [Example 273, 5-(tert-butyl)-N-(1-cyclopropyl-1H-pyrazol-4-yl)-1H-pyrazolo[4,3-d]pyrimidin-7-amine] displayed an IC50 of 100 to 1000 nM. The value for `c1coc(-c2nc(Nc3cnn(C4CC4)c3)c3[nH]ncc3n2)c1` [Example 278, N-(1-cyclopropyl-1H-pyrazol-4-yl)-5-(furan-2-yl)-1H-pyrazolo[4,3-d]pyrimidin-7-amine] was 10 to 100 nM.

For the origin of these results see US9637491B2, “Pyrazolo[4,3-D]pyrimidines as kinase inhibitors” (Origenis GmbH, priority 2012, dated 2017).
